From patent US20250098720A1, “SWEETENER COMPOSITIONS” (Firmenich SA, priority 2022, published 2025)

Tests used:
[1] = Sensory experiment, trained panel, sweet base (water solution containing sucrose at 4%); format: in vivo, human; conditions: 10 ppm compound in 4% sucrose base; twenty trained panelists
Description: (§1) Methodology: compounds 101 and 108 were evaluated as sweet modifiers in a sweet (water solution containing sucrose at 4%) or a sweet-sour base (mixture of inverted sugar and citric acid at 7% and 0.15%) at 10 ppm. Twenty trained panelists were asked to compare the intensity difference between reference and compound 101 or compound 108. The taste properties (such as sweet, sour) were evaluated on a scale of −5 to 5 (−5 denoted strong masking effect and 5 denoted strong enhancing effect, 0 being the intensity of reference.

[2] = pH value of the sweet-sour base with compound; format: physicochemical; conditions: 10 ppm compound in sweet-sour base of inverted sugar and citric acid
[3] = Sensory experiment, trained panel, sweet-sour base (inverted sugar 7% and citric acid 0.15%); format: in vivo, human; conditions: 10 ppm compound in sweet-sour base of inverted sugar 7% and citric acid 0.15%
Description: as §1

In the case of `O=C1CC(c2ccc(O)cc2)c2c(cc(O)c(C(=O)CCc3ccc(O)cc3)c2O)O1` (centres unmarked) [compound 108], the “sweet intensity versus reference (scale -5 to 5)” value (shortened to “sweet intensity versus reference”) [1] is reported as “can increase sweet intensity”.

For `COc1cc(O)c(C(=O)CCc2ccc(O)cc2)c(O)c1C` [compound 101], the “pH value of the base” value [2] was “without changing the pH value”, the “sour intensity versus reference (scale -5 to 5)” value [3] was “significantly increase” and the “sweet intensity versus reference” value [3] was “significantly increase”. The “sweet intensity versus reference” value [1] was “can increase sweet intensity”.
